# Measurements published in patent US7494780B2, “Epididymis-specific defensin for evaluating and regulating male fertility” (The Chinese University of Hong Kong, priority 2004, dated 2009).
# System: Bin1b
# Test: In vivo antisense oligonucleotide treatment, injection into mid-caput epididymis
# Parameters: species or system rat
# Method: Sperm motility analysis. For the motility analysis, we used an HTM-IVOS system (version 10.8, Hamilton-Thorn Research) with the following settings: objective, ×4; minimum cell size, six pixels; minimum contrast, 65; minimum static contrast, 30; low VAP cut-off, 30.0; low VSL cut-off, 20.0; threshold straightness, 50%; static head size, 0.29-10.0; static head intensity, 0.29-1.11; magnification, 0.82. Sixty frames were acquired at a frame rate of 60 Hz. At least 200 tracks were measured for each specimen at 37° C. We recorded at least 30 points for each tract. The playback function of the system was used to check its accuracy.
# Flow cytometry analysis. Rat sperm were stained with Bin1b polyclonal antibody at a final concentration of 1:200. In control samples, the antibody was replaced by preimmune serum at the same concentration. After incubation at 4° C. overnight, the sperm were washed twice with PBS containing 4 mg ml^−1 bovine serum albumin and incubated for 45 min at 22° C. with the secondary antibody, fluorescein isothiocyanate (FITC)-conjugated goat antibody against rabbit IgG (Zymed Laboratories) at a dilution of 1:50. After three washes, the sperm were analysed on a flow cytometer (Beckman Coulter). We analyzed 10,000 individual sperm per sample for FITC fluorescence emissions. A negative control of sperm stained by normal rabbit IgG was used to set the threshold for specific Bin1b staining. The percentage of sperm specifically stained for Bin1b was obtained by subtracting background fluorescence.
# In vivo antisense oligonucleotide treatment. The skin covering the testis of a male Sprague-Dawley rat (aged >3 months) was cut open under anaesthesia and 30 μl of Bin1b antisense oligonucleotide (5′-[…]-3′; SEQ ID NO:3) or control sense oligonucleotide (5′-[…]-3′; SEQ ID NO:4) solution (20 μg ml^−) was injected into the proximal side of the mid-caput epididymis. The sperm were collected for assessment 48 h after injection. The use of animals in this project was authorized by the Animal Research Ethics Committee of The Chinese University of Hong Kong.
# [1] = versus sense oligonucleotide control, 48 h after injection
substance,measurement,setting,value
"5′-AGAGTAACAAAACCTTCATG-3′ (listed as DNA, chemistry not given here) [antisense Bin1b oligonucleotide]",expression of Bin1b messenger RNA in the caput epididymis (semiquantitative RT-PCR),"20 μg ml^−1, versus sense control",significantly suppressed
same,Bin1b binding to sperm collected in the distal caput region (flow cytometry),versus sense control,considerable reduction
same,motility of sperm from the distal caput epididymis,[1],reduced sperm motility
same,progressive movement of sperm from the distal caput epididymis,[1],significantly lower
same,motility of sperm from the distal caput epididymis,"versus sense oligonucleotide control, 48 h after injection, listed as Bin1b antisense oligonucleotide",significantly lower
